Data on 1 molecule can be found in paper PMC5552880, “The Bitter Taste Receptor TAS2R16 Achieves High Specificity and Accommodates Diverse Glycoside Ligands by using a Two-faced Binding Pocket” (Scientific Reports, 2017).

Assay [1] deals with T1, L59P TAS2R16 (Homo sapiens, UniProt Q9NYV7, L59P).
T1 construct: Each construct in the mutation library was tested for full-length TAS2R16 translation; V5; expressed in transfected cells; host or cells: HEK-293T
The experiment in a line: Ca2+ flux assay, mutation library clone L59P. The assay is classed as cell-based. Conditions: 3 mM salicin, mean (range, max-min), n=3. The procedure:
(§1) The TAS2R16 mutation library was tested for function using a Ca^2+ flux assay as described previously. Later screens of individual TAS2R16 mutant clones used 4-nitrophenyl-β-D-glucopyranoside. Briefly, HEK-293T cells, in poly-lysine coated, black 384-well plates with clear bottoms (Costar), were transfected with the TAS2R16 mutation library, and a plasmid expressing a Gα16 chimera containing the last 44 amino acids of rat gustducin (Gα16gust44). Cells were incubated for 22 hours at 37 °C then washed twice with a calcium indicator dye in HBSS containing 20 mM HEPES (Calcium 4 Assay kit, Molecular Devices), incubated with HBSS for 1.5 hr, then moved to a Flexstation II-384 (Molecular Devices) set at 32 °C. […] Concentrations for mutation library screening were chosen to be approximately 2 to 3 times higher than the EC50 values for the ligands to maximize the sensitivity of detecting decreases in signaling due to the mutation in each clone.
(§2) For Ca^2+ flux assays, the value of fluorescence at 30 seconds after ligand addition (the time of peak signal for wild-type TAS2R16) was used as the maximum value. […] Data sets were analyzed and represented as percentage over baseline signal. Mean and standard deviation values were calculated for each clone from replicate assay data.

The target in assay [2] is T2, N96T TAS2R16 (Homo sapiens, UniProt Q9NYV7, N96T).
T2 construct: FLAG (N); expressed in transfected cells; host or cells: HEK-293T
Put plainly: Ca2+ flux assay, N96T TAS2R16 variant. The assay is classed as cell-based. Conditions: Fig. 7 dose-response. The method, then: as §1, §2
Ligand dose-response data was analyzed with Graphpad Prism 5 software. […]

Assay [3] deals with T3, N172K TAS2R16 (Homo sapiens, UniProt Q9NYV7, N172K).
T3 construct: Each construct in the mutation library was tested for full-length TAS2R16 translation; V5; expressed in transfected cells; host or cells: HEK-293T
The experiment in a line: Ca2+ flux assay, mutation library clone N172K. The assay is classed as cell-based. As to conditions: 3 mM salicin, mean (range, max-min), n=3. The procedure:
as §1, §2

Assay [4] has as its target T4, D46A TAS2R16 (Homo sapiens, UniProt Q9NYV7, D46A).
T4 construct: FLAG (N); expressed in transfected cells; host or cells: HEK-293T
The experiment in a line: Ca2+ flux assay, mutation library clone D46A. The assay is classed as cell-based. Conditions: 3 mM salicin, mean (range, max-min), n=3. The procedure: as §1, §2
(In general: Calcium assays in cells follow changes in intracellular calcium, usually with a dye or a luminescent sensor.)

Assay [5] deals with T5, Q60R TAS2R16 (Homo sapiens, UniProt Q9NYV7, Q60R).
T5 construct: V5; expressed in transfected cells; host or cells: HEK-293T
The experiment in a line: Ca2+ flux assay, mutation library clone Q60R. The format is cell-based. As to conditions: 3 mM salicin, mean (range, max-min), n=3. The procedure: as §1, §2

The subject of assay [6] is TAS2R16. As to conditions: read-out: EC50, reported value; cited from earlier work.
The target of assay [7] is T6, I21F TAS2R16 (Homo sapiens, UniProt Q9NYV7, I21F).
T6 construct: FLAG (N); expressed in transfected cells; host or cells: HEK-293T
The experiment in a line: Ca2+ flux assay, mutation library clone I21F. Conditions: 3 mM salicin, mean (range, max-min), n=3. The format is cell-based. The procedure: as §1, §2

Assay [8] addresses T7, W61R TAS2R16 (Homo sapiens, UniProt Q9NYV7, W61R).
T7 construct: V5; expressed in transfected cells; host or cells: HEK-293T
The experiment in a line: Ca2+ flux assay, mutation library clone W61R. The format is cell-based. Conditions: 3 mM salicin, mean (range, max-min), n=3. The method, then:
as §1, §2

The target of assay [9] is T8, M64R TAS2R16 (Homo sapiens, UniProt Q9NYV7, M64R).
T8 construct: Each construct in the mutation library was tested for full-length TAS2R16 translation; V5; expressed in transfected cells; host or cells: HEK-293T
Put plainly: Ca2+ flux assay, mutation library clone M64R. The assay is classed as cell-based. Conditions: 3 mM salicin, mean (range, max-min), n=3. The method, then: as §1, §2

The target of assay [10] is T9, C58R TAS2R16 (Homo sapiens, UniProt Q9NYV7, C58R).
T9 construct: V5; expressed in transfected cells; host or cells: HEK-293T
The experiment in a line: Ca2+ flux assay, mutation library clone C58R. The format is cell-based. Conditions: 3 mM salicin, mean (range, max-min), n=3. The method, then: as §1, §2

Assay [11] has as its target T10, L276R TAS2R16 (Homo sapiens, UniProt Q9NYV7, L276R).
T10 construct: V5; expressed in transfected cells; host or cells: HEK-293T
Put plainly: Ca2+ flux assay, mutation library clone L276R. As to conditions: 3 mM salicin, mean (range, max-min), n=3. The assay is classed as cell-based. The procedure: as §1, §2

Assay [12] deals with T11, L191R TAS2R16 (Homo sapiens, UniProt Q9NYV7, L191R).
T11 construct: Each construct in the mutation library was tested for full-length TAS2R16 translation; V5; expressed in transfected cells; host or cells: HEK-293T
Put plainly: Ca2+ flux assay, mutation library clone L191R. The format is cell-based. As to conditions: 3 mM salicin, mean (range, max-min), n=3. The method, then:
as §1, §2

Assay [13] addresses T12, Q24R TAS2R16 (Homo sapiens, UniProt Q9NYV7, Q24R).
T12 construct: FLAG (N); expressed in transfected cells; host or cells: HEK-293T
The experiment in a line: Ca2+ flux assay, mutation library clone Q24R. The assay is classed as cell-based. As to conditions: 3 mM salicin, mean (range, max-min), n=3. The procedure:
as §1, §2

Assay [14] deals with T13, R56P TAS2R16 (Homo sapiens, UniProt Q9NYV7, R56P).
T13 construct: FLAG (N); expressed in transfected cells; host or cells: HEK-293T
The experiment in a line: Ca2+ flux assay, mutation library clone R56P. The assay is classed as cell-based. Conditions: 3 mM salicin, mean (range, max-min), n=3. The procedure: as §1, §2

In assay [15] the target is T14, S97R TAS2R16 (Homo sapiens, UniProt Q9NYV7, S97R).
T14 construct: Each construct in the mutation library was tested for full-length TAS2R16 translation; V5; expressed in transfected cells; host or cells: HEK-293T
The experiment in a line: Ca2+ flux assay, mutation library clone S97R. The format is cell-based. Conditions: 3 mM salicin, mean (range, max-min), n=3. The procedure:
as §1, §2

Assay [16] has as its target T15, L134R TAS2R16 (Homo sapiens, UniProt Q9NYV7, L134R).
T15 construct: Each construct in the mutation library was tested for full-length TAS2R16 translation; V5; expressed in transfected cells; host or cells: HEK-293T
Put plainly: Ca2+ flux assay, mutation library clone L134R. The format is cell-based. Conditions: 3 mM salicin, mean (range, max-min), n=3. The method, then: as §1, §2

Assay [17] concerns the target T16, C104R TAS2R16 (Homo sapiens, UniProt Q9NYV7, C104R).
T16 construct: Each construct in the mutation library was tested for full-length TAS2R16 translation; V5; expressed in transfected cells; host or cells: HEK-293T
Put plainly: Ca2+ flux assay, mutation library clone C104R. The assay is classed as cell-based. Conditions: 3 mM salicin, mean (range, max-min), n=3. The procedure: as §1, §2

Assay [18] concerns the target T17, S228T TAS2R16 (Homo sapiens, UniProt Q9NYV7, S228T).
T17 construct: FLAG (N); expressed in transfected cells; host or cells: HEK-293T
T17 sequence (Q9NYV7 1-291 S228T): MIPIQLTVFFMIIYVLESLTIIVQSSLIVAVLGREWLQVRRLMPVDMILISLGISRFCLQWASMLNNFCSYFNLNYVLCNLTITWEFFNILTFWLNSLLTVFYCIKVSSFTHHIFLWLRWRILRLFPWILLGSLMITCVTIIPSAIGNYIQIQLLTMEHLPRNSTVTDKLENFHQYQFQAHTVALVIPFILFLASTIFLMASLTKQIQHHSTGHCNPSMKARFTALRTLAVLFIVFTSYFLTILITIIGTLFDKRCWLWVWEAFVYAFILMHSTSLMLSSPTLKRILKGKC
The experiment in a line: Ca2+ flux assay, mutation library clone S228T. The assay is classed as cell-based. As to conditions: library screening concentrations. The procedure: as §1
(§3) For Ca^2+ flux assays, the value of fluorescence at 30 seconds after ligand addition (the time of peak signal for wild-type TAS2R16) was used as the maximum value. […] Raw data obtained from surface expression and flux experiments were normalized to the values for wild-type TAS2R16 on each plate. Data sets were analyzed and represented as percentage over baseline signal. Mean and standard deviation values were calculated for each clone from replicate assay data.

Assay [19] has as its target T18, M271R TAS2R16 (Homo sapiens, UniProt Q9NYV7, M271R).
T18 construct: Each construct in the mutation library was tested for full-length TAS2R16 translation; V5; expressed in transfected cells; host or cells: HEK-293T
Put plainly: Ca2+ flux assay, mutation library clone M271R. The format is cell-based. As to conditions: 3 mM salicin, mean (range, max-min), n=3. The method, then: as §1, §2

Assay [20] addresses T19, S108T TAS2R16 (Homo sapiens, UniProt Q9NYV7, S108T).
T19 construct: FLAG (N); expressed in transfected cells; host or cells: HEK-293T
T19 sequence (Q9NYV7 1-291 S108T): T17 sequence (Q9NYV7 1-291 S228T) with S108T, T228S
The experiment in a line: Ca2+ flux assay, mutation library clone S108T. The format is cell-based. As to conditions: library screening concentrations. The procedure:
as §1, §3

Molecules are shown by their SMILES. Numbering of substitutions follows the chain as printed. “And” between values parts separate entries of the source, which are not always exact repeats. Identical values can stand only once.

T3 sequence (Q9NYV7 whole entry N172K): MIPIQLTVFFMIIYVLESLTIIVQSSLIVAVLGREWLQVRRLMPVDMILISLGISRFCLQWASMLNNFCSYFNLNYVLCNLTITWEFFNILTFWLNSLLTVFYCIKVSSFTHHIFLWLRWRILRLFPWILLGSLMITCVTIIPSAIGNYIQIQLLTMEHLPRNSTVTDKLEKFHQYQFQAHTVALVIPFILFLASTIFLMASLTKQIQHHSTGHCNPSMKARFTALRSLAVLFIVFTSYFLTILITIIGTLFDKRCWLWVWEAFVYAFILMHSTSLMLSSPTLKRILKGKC
T13 sequence (Q9NYV7 whole entry R56P): as the sequence (Q9NYV7 whole entry N172K) above, with R56P, K172N counted along it
T12 sequence (Q9NYV7 whole entry Q24R): as the sequence (Q9NYV7 whole entry N172K) above, with Q24R, K172N counted along it
T5 sequence (Q9NYV7 whole entry Q60R): as the sequence (Q9NYV7 whole entry N172K) above, with Q60R, K172N counted along it
T16 sequence (Q9NYV7 whole entry C104R): as the sequence (Q9NYV7 whole entry N172K) above, with C104R, K172N counted along it
T15 sequence (Q9NYV7 whole entry L134R): as the sequence (Q9NYV7 whole entry N172K) above, with L134R, K172N counted along it
T11 sequence (Q9NYV7 whole entry L191R): as the sequence (Q9NYV7 whole entry N172K) above, with K172N, L191R counted along it
T6 sequence (Q9NYV7 whole entry I21F): as the sequence (Q9NYV7 whole entry N172K) above, with I21F, K172N counted along it
T4 sequence (Q9NYV7 whole entry D46A): as the sequence (Q9NYV7 whole entry N172K) above, with D46A, K172N counted along it
T18 sequence (Q9NYV7 whole entry M271R): as the sequence (Q9NYV7 whole entry N172K) above, with K172N, M271R counted along it
T2 sequence (Q9NYV7 whole entry N96T): as the sequence (Q9NYV7 whole entry N172K) above, with N96T, K172N counted along it
T14 sequence (Q9NYV7 whole entry S97R): as the sequence (Q9NYV7 whole entry N172K) above, with S97R, K172N counted along it
T8 sequence (Q9NYV7 whole entry M64R): as the sequence (Q9NYV7 whole entry N172K) above, with M64R, K172N counted along it
T10 sequence (Q9NYV7 whole entry L276R): as the sequence (Q9NYV7 whole entry N172K) above, with K172N, L276R counted along it
T1 sequence (Q9NYV7 whole entry L59P): as the sequence (Q9NYV7 whole entry N172K) above, with L59P, K172N counted along it
T9 sequence (Q9NYV7 whole entry C58R): as the sequence (Q9NYV7 whole entry N172K) above, with C58R, K172N counted along it
T7 sequence (Q9NYV7 whole entry W61R): as the sequence (Q9NYV7 whole entry N172K) above, with W61R, K172N counted along it

On to `OCc1ccccc1O[C@@H]1O[C@H](CO)[C@@H](O)[C@H](O)[C@H]1O` [salicin], for which the “Ca2+ flux in response to salicin” value in assay [1] was 2 (3) % of wild-type; in [3], 83 (13) % of wild-type and 83 % of wild-type; in assay [4] it was 8 (9) % of wild-type; in assay [5], 4 (7) % of wild-type; in assay [7], 9 (5) % of wild-type; in assay [8], 15 (7) % of wild-type. The “Ca2+ flux in response to salicin” value in assay [9] is reported as 14 (1) % of wild-type; in assay [10], 5 (2) % of wild-type; in [11] it was 17 (7) % of wild-type; in assay [12] it was 1 (3) % of wild-type; in assay [13], 9 (9) % of wild-type; in assay [14] it was 2 (1) % of wild-type. In addition, the “Ca2+ flux in response to salicin” value is listed as 0 (5) % of wild-type in assay [15], 1 (8) % of wild-type in assay [16], 9 (1) % of wild-type in assay [17] and 7 (6) % of wild-type in assay [19]. The EC50 (in general, the concentration that produces a half-maximal response) was 800 µM in [2] and 3 mM in assay [6]. Also, the “Ca2+ flux signaling value” is on record as 90 % of wild-type in assay [18] and 99 % of wild-type in [20].
